{"source": "patent US20160272937A1", "about": "“METHODS OF GENERATING INTERMEDIATE MESODERM CELLS FROM HUMAN PLURIPOTENT STEM CELLS” (THE BRIGHAM AND WOMEN'S HOSPITAL, INC., priority 2013, published 2016)", "test_system": "human pluripotent stem cells (hPSCs)", "experiment": "Mesendoderm induction: BRACHYURY immunofluorescence in hPSCs", "assay_type": "cell-based", "protocol": "For differentiation experiments, hESCs or hiPSCs can be grown on Geltrex, washed once with PBS and dissociated into single cells with Accutase ([…] Technologies). Cells are plated at a density of 4×10^4 cells/cm^2 onto Geltrex-coated plates in mTeSR1 medium supplemented with the ROCK inhibitor Y27632 10 μM (Stemgent). Cells are fed daily with mTeSR1 without Y27632 for 2-3 days until they reached 50% confluency. Mesendoderm differentiation-the media is changed to Advanced RPMI (A-RPMI, Invitrogen) supplemented with 1×L-glutamax and 1× penicillin/streptomycin and either CHIR99021 (CHIR, Stemgent), human Wnt3a (R&D systems), and/or human activin A (R&D systems) at the doses described. Definitive endoderm differentiation-cells are treated with […] for 24 hours, then […]+100 ng/mL of activin A for 2-3 days. Hepatic differentiation-cells at the definitive endoderm stage are treated with […]27 supplement (Invitrogen)+20 ng/mL BMP-4 (R&D systems)+10 ng/mL FGF2 (Invitrogen) for 5 days, then […]27+10 ng/mL HGF for 5 days, then HCM Hepatocyte Culture Medium (Lonza) supplemented with 20 ng/mL Oncostatin M and 10 ng/mL HGF (Peprotech) for 5 days. Pancreatic differentiation-cells at the definitive endoderm stage are treated with DMEM/F12+2% FBS (Hyclone)+50 ng/mL FGF7 (R&D systems) for 2 days, then high-glucose DMEM (Mediatech)+1% B27+2 μM retinoic acid (Sigma)+0.25 μM KAAD cyclopamine (EMD Millipore)+100 ng/mL recombinant human Noggin (R&D systems) for 4 days, then high-glucose DMEM+1% B27+100 ng/mL Noggin+300 nM indolactam V (Stemgent)+1 μM ALK5 inhibitor II (Axxora) for 4 days. Anterior foregut endoderm differentiation-cells at the definitive endoderm stage are treated with DMEM/F12+1×L-glu+1×B27+200 ng/mL Noggin+10 μM SB431542 (Stemgent) for 3 days. […] Immunofluorescence is visualized using an inverted fluorescence microscope (Nikon Eclipse Ti, Tokyo, Japan). Quantification is performed by counting a minimum of five random fields at 10× magnification. […]", "data": [{"smiles": "Cc1c[nH]c(-c2cnc(NCCNc3ccc(C#N)cn3)nc2-c2ccc(Cl)cc2Cl)n1", "note": "[CHIR99021]", "values": [{"measurement": "cells expressing BRACHY", "setting": "5 μM, 24 hours", "value": "98.7±1.3", "unit": "%"}, {"measurement": "efficiency of BRACHYURY+MIXL1+ mesendoderm differentiation", "setting": "summary statement", "value": "~100", "unit": "%"}]}]}
